# Read-outs that look alike come from different tables or passages of the source. No end group written: not given here.
# Columns and labels:
# Test in all cases: biochemical
# Format in all cases: binding
# [1] = target: HLA-A*0203 (Homo sapiens, UniProt P04439, A173T/D140Y/D185E/D98H/E277Q/G131W/G231S/I119V/I121R/I166T/I218V/L180W/L300P/L318F/N151K/N90K/P208A/P217A/Q86G/Q94H/R138H/R169H/T345S)
# [2] = target: HLA-A*0202 (Homo sapiens, UniProt P04439, D140Y/D185E/D98H/E176V/E277Q/G131W/G231S/I119L/I121R/I166T/I218V/L180W/L300P/L318F/N151K/N90K/P208A/P217A/Q67R/Q86G/Q94H/R138H/R169H/T345S)
# [3] = target: HLA-A*0201 (Homo sapiens, UniProt P04439, D140Y/D185E/D98H/E176V/E277Q/G131W/G231S/I119V/I121R/I166T/I218V/L300P/L318F/N151K/N90K/P208A/P217A/Q86G/Q94H/R138H/R169H/T345S)
# [4] = target: HLA-A*6802 (Homo sapiens, UniProt P04439, A269V/D140Y/D185E/E176V/E277Q/E87N/F33Y/G231S/I121R/I166T/I218V/L180W/L300P/L318F/N151K/P208A/P217A/Q86R/R138H/R169H/S129P/T345S/V36M)
# [5] = target: HLA-A*0206 (Homo sapiens, UniProt P04439, D140Y/D185E/D98H/E176V/E277Q/F33Y/G131W/G231S/I119V/I121R/I166T/I218V/L300P/L318F/N151K/N90K/P208A/P217A/Q86G/Q94H/R138H/R169H/T345S)
# [6] = A*0202 binding affinity (expressed as an IC50)
# [7] = A*6802 binding affinity (expressed as an IC50)
# [8] = A*0206 binding affinity (expressed as an IC50)
# [9] = A*0201 binding affinity (expressed as an IC50)
# [10] = A*0203 binding affinity (expressed as an IC50)
Sequence,IC50 [1],"IC50 [2, 6]","IC50 [4, 7]","IC50 [5, 8]","IC50 [3, 9]","IC50 [1, 10]",also measured
KLTPLCVPL,297 nM,,,,,,IC50 [2]: 0.25 nM; IC50 [3]: 15 nM
KLTPLCVTM,,3.6 nM,6290 nM,197 nM,340 nM,,
LLNESNIFL,,2.5 nM,4480 nM,,43 nM,24 nM,
LLYSKKRQEI,152 nM,,,,,,IC50 [5]: > 9440 nM; IC50 [3]: 80700 nM
LLYSKKRQEIL,1570 nM,,,,,,IC50 [4]: > 14300 nM; IC50 [5]: > 8560 nM; IC50 [3]: > 38200 nM
LQLPPLERV,13500 nM,,,,,,IC50 [2]: 7710 nM; IC50 [5]: 203 nM; IC50 [3]: 7950 nM
MTANPPVPV,,5 nM,4 nM,,20 nM,0.62 nM,
MTNNPPVPV,,18 nM,,,86 nM,0.42 nM,
MTSDPPIPV,0.45 nM,,,,,,IC50 [2]: 13 nM; IC50 [5]: 587 nM; IC50 [3]: 107 nM
NQMIFVSSI,,21 nM,,14 nM,250 nM,3.6 nM,
PVLPIFFCV,,3140 nM,,22 nM,8.7 nM,,
QAHCNISRA,,,,,338 nM,,
QLVFGGPGPGV,,96 nM,1320 nM,3210 nM,2150 nM,,
QLVFGPGPGEV,,,447 nM,4070 nM,2940 nM,50 nM,
QMTFLCVQM,,40 nM,,232 nM,3150 nM,,
RLDILDLWV,1640 nM,,,,,,IC50 [4]: > 17800 nM; IC50 [5]: 2640 nM; IC50 [3]: 43 nM
RLFEESLGI,,1.9 nM,418 nM,68 nM,,5.5 nM,

Sequence,IC50 [1],"IC50 [2, 6]","IC50 [4, 7]","IC50 [5, 8]","IC50 [3, 9]","IC50 [1, 10]",also measured
RLPVICSFLV,,2.5 nM,9180 nM,19 nM,,33 nM,
SLGPGPGIAV,,5.3 nM,281 nM,917 nM,,11 nM,
TLHDLCQAL [TLHDLCQAL],,2.7 nM,70400 nM,,1400 nM,40 nM,
TLHDLCQAV,15 nM,,,,,,IC50 [2]: 17 nM; IC50 [4]: 2810 nM; IC50 [5]: 10600 nM
TLQGPGPGL,,62 nM,3810 nM,9120 nM,,951 nM,
VLAEAMSHA,1.2 nM,,,,,,IC50 [2]: 1.7 nM; IC50 [4]: 431 nM; IC50 [5]: 121 nM
VLAEAMSQI,0.87 nM,,,,,,IC50 [2]: 0.15 nM; IC50 [5]: 70 nM; IC50 [3]: 71 nM
VLAKGPGPGTL,,26 nM,> 170000 nM,,11300 nM,,
VLGPGPGFVTL,,13 nM,42100 nM,4770 nM,,63 nM,
VLMEWLKTRPI,,,,,,,IC50 [3]: 464 nM
VTAKELKFV,,2690 nM,,137 nM,7140 nM,40 nM,
WLGPGPGFV,,4.1 nM,293 nM,530 nM,,2.2 nM,
WLNYTPGPGI,46 nM,,,,,,IC50 [2]: 4.6 nM; IC50 [4]: 1200 nM; IC50 [5]: > 31600 nM
YLKEPVHGV,1.9 nM,,,,,,IC50 [2]: 0.65 nM; IC50 [4]: 63 nM; IC50 [3]: 54 nM
YLSGAIDLNL,,,,,,,IC50 ([4]; read-out: A*6802 binding affinity (expressed as an IC50)): 51200 nM; IC50 ([3]; read-out: A*0201 binding affinity (expressed as an IC50)): 36 nM
YMIKKLLKI,,4.6 nM,63100 nM,93 nM,,4.7 nM,
YQDPQNYEL,,18 nM,167000 nM,52 nM,79 nM,,

# From US20060079453A1, “Hla binding peptides and their uses” (priority 2002, published 2006)
